Numbered stars: 1 amine (or outer) side, 2 acyl side, 3 side chain; on linkers, the order of the positions; unused ones are H or OH. Bridge positions count the residues as written; N and C are the ends. Square brackets hold non-standard residues; d marks the D form. Peptide text beside a SMILES is read from it. Phe(4-CH2NHiPr) = CC(C)NCc1ccc(C[C@H](N)C(=O)O)cc1; X1 = CC(C)CNCc1ccc(C[C@H](N[*:1])C(=O)[*:2])cc1; Phe(4-CH2NH2) = NCc1ccc(C[C@H](N)C(=O)O)cc1; d2Nal = N[C@H](Cc1ccc2ccccc2c1)C(=O)O
Key:
[1] = molecular target: Somatostatin receptor type 1 (Homo sapiens, UniProt P30872); experiment: Tested for ability to bind to 20 uM thick cryostat sections of a membrane pellet of cells transfected with human cloned somatostatin (sst) receptor subtype 1.
Somatostatin receptor type 1, sequence (P30872 whole entry): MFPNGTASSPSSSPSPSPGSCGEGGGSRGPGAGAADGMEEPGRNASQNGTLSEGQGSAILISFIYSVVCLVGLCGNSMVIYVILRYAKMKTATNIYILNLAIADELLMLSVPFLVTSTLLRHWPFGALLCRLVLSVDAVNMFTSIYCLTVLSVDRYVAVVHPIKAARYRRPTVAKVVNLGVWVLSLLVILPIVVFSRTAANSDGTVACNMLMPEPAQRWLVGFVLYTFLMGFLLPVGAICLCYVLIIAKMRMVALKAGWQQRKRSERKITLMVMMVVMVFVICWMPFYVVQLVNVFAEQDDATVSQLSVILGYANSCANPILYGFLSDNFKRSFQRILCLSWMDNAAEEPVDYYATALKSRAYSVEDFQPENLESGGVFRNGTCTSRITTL

[2] = molecular target: Somatostatin receptor type 4 (Homo sapiens, UniProt P31391); experiment: Tested for ability to bind to 20 uM thick cryostat sections of a membrane pellet of cells transfected with human cloned somatostatin (sst) receptor subtype 4.
Somatostatin receptor type 4, sequence (P31391 whole entry): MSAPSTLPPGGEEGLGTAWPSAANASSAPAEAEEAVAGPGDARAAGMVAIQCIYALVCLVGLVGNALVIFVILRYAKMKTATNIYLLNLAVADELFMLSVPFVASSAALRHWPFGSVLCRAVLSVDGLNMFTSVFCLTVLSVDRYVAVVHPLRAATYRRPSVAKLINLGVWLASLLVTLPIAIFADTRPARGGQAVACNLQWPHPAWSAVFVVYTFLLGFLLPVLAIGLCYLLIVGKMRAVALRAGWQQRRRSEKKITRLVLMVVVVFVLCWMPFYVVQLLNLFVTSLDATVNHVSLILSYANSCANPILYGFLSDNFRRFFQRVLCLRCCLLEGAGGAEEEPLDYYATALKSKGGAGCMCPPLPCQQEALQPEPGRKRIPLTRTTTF

[3] = molecular target: Somatostatin receptor type 5 (Homo sapiens, UniProt P35346); experiment: Tested for ability to bind to 20 uM thick cryostat sections of a membrane pellet of cells transfected with human cloned somatostatin (sst) receptor subtype 5.
Somatostatin receptor type 5, sequence (P35346 whole entry): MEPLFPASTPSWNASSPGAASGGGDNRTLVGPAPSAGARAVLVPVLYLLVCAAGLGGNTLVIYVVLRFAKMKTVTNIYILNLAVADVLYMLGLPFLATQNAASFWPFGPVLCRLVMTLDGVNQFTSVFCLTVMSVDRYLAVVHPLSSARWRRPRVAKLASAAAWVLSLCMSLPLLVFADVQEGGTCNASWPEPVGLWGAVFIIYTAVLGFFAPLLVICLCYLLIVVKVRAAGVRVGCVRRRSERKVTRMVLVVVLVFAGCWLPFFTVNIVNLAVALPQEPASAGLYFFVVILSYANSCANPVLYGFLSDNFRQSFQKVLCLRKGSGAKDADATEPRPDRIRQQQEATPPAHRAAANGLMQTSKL

[4] = molecular target: Somatostatin receptor type 2 (Homo sapiens, UniProt P30874); experiment: Tested for ability to bind to 20 uM thick cryostat sections of a membrane pellet of cells transfected with human cloned somatostatin (sst) receptor subtype 2.
Somatostatin receptor type 2, sequence (P30874 whole entry): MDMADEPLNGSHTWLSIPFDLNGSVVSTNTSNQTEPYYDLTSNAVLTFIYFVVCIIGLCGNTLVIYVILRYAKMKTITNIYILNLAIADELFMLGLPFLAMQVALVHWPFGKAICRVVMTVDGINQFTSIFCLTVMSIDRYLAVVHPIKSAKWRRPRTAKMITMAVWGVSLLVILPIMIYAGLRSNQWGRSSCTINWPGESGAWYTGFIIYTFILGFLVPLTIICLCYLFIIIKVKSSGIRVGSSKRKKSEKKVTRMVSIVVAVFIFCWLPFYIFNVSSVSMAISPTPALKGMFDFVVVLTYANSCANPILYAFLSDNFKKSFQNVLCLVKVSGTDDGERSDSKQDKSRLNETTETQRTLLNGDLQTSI

[5] = molecular target: Somatostatin receptor type 3 (Homo sapiens, UniProt P32745); experiment: Tested for ability to bind to 20 uM thick cryostat sections of a membrane pellet of cells transfected with human cloned somatostatin (sst) receptor subtype 3.
Somatostatin receptor type 3, sequence (P32745 whole entry): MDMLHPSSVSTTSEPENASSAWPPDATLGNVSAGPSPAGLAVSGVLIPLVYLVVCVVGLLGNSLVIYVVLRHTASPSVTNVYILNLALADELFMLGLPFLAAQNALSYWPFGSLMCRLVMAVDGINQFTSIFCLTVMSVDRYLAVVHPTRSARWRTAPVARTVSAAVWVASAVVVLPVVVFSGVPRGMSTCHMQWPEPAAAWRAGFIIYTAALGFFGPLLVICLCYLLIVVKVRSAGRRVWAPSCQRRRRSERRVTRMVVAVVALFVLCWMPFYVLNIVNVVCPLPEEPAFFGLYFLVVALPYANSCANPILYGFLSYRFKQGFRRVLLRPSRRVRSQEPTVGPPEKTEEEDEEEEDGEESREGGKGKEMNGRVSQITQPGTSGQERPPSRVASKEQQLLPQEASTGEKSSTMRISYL

IC50 [1] [µM]	IC50 [2] [µM]	IC50 [3] [µM]	IC50 [4] [µM]	IC50 [5] [µM]	SMILES
0.443	> 10	> 10	> 1	> 10	CC(C)NCc1ccc(C[C@@H]2NC(=O)[C@@H](Cc3c[nH]c4ccccc34)NC(=O)[C@H](Cc3ccccc3)NC(=O)[C@H](Cc3ccccc3)NC(=O)[C@H](CC(N)=O)NC(=O)[C@H](CCCCN)NC(=O)[C@@H](N)CSSC[C@@H](C(=O)O)NC(=O)[C@H](CO)NC(=O)[C@H]([C@@H](C)O)NC(=O)[C@H](Cc3ccccc3)NC(=O)[C@H]([C@@H](C)O)NC2=O)cc1 (H-CKNFF[dW][Phe(4-CH2NHiPr)]TFTSC-OH; disulfide 1-12)
0.309	0.267	0.19	0.213	0.273	C[C@@H](O)[C@@H]1NC(=O)[C@H](Cc2ccccc2)NC(=O)[C@H]([C@@H](C)O)NC(=O)[C@H](Cc2ccc(CN)cc2)NC(=O)[C@@H](Cc2c[nH]c3ccccc23)NC(=O)[C@H](Cc2ccccc2)NC(=O)[C@H](Cc2ccccc2)NC(=O)[C@H](CCCCN)NC(=O)[C@@H](N)CSSC[C@@H](C(=O)O)NC(=O)[C@H](CO)NC1=O (H-CKFF[dW][Phe(4-CH2NH2)]TFTSC-OH; disulfide 1-11)
0.13	> 1	> 1	> 1	0.381	CC(C)CNCc1ccc(C[C@@H]2NC(=O)[C@@H](Cc3c[nH]c4ccccc34)NC(=O)[C@H](Cc3ccccc3)NC(=O)[C@H](Cc3ccccc3)NC(=O)[C@H](CCCCN)NC(=O)[C@@H](N)CSSC[C@@H](C(=O)O)NC(=O)[C@H](CO)NC(=O)[C@H]([C@@H](C)O)NC(=O)[C@H](Cc3ccccc3)NC(=O)[C@H]([C@@H](C)O)NC2=O)cc1 (H-CKFF[dW][X1]TFTSC-OH; disulfide 1-11)
0.0054	0.0035	0.0167	0.00033	0.0043	C[C@@H](O)[C@@H]1NC(=O)[C@H](Cc2ccccc2)NC(=O)[C@H]([C@@H](C)O)NC(=O)[C@H](CCCCN)NC(=O)[C@@H](Cc2c[nH]c3ccccc23)NC(=O)[C@H](Cc2ccccc2)NC(=O)[C@H](Cc2ccccc2)NC(=O)[C@H](CC(N)=O)NC(=O)[C@H](CCCCN)NC(=O)[C@@H](N)CSSC[C@@H](C(=O)O)NC(=O)[C@H](CO)NC1=O
0.347	> 1	0.385	0.343	0.081	C[C@@H](O)[C@@H]1NC(=O)[C@H](Cc2ccccc2)NC(=O)[C@H]([C@@H](C)O)NC(=O)[C@H](Cc2ccc(CN)cc2)NC(=O)[C@@H](Cc2ccc3ccccc3c2)NC(=O)[C@H](Cc2ccccc2)NC(=O)[C@H](Cc2ccccc2)NC(=O)[C@H](CCCCN)NC(=O)[C@@H](N)CSSC[C@@H](C(=O)O)NC(=O)[C@H](CO)NC1=O
> 1	> 10	> 10	> 10	> 10	C[C@@H](O)[C@@H]1NC(=O)[C@H](Cc2ccccc2)NC(=O)[C@H]([C@@H](C)O)NC(=O)[C@H](Cc2ccc(Nc3nnc(N)[nH]3)cc2)NC(=O)[C@@H](Cc2c[nH]c3ccccc23)NC(=O)[C@H](Cc2ccccc2)NC(=O)[C@H](Cc2ccccc2)NC(=O)[C@H](CCCCN)NC(=O)[C@@H](N)CSSC[C@@H](C(=O)O)NC(=O)[C@H](CO)NC1=O
–	–	> 10	> 10	0.345	CC(C)NCc1ccc(C[C@@H]2NC(=O)[C@@H](Cc3c[nH]c4ccccc34)NC(=O)[C@H](Cc3ccccc3)NC(=O)[C@H](Cc3ccccc3)NC(=O)[C@H](CCCCN)NC(=O)[C@@H](N)CSSC[C@@H](C(=O)O)NC(=O)[C@H](CO)NC(=O)[C@H]([C@@H](C)O)NC(=O)[C@H](Cc3ccccc3)NC(=O)[C@H]([C@@H](C)O)NC2=O)cc1 (H-CKFF[dW][Phe(4-CH2NHiPr)]TFTSC-OH; disulfide 1-11)

More lines, now with the values behind:

SMILES	IC50 [1] [µM]	IC50 [2] [µM]	IC50 [3] [µM]	IC50 [4] [µM]	IC50 [5] [µM]
CC(C)NCc1ccc(C[C@@H]2NC(=O)[C@@H](Cc3ccc4ccccc4c3)NC(=O)[C@H](Cc3ccccc3)NC(=O)[C@H](Cc3ccccc3)NC(=O)[C@H](CCCCN)NC(=O)[C@@H](N)CSSC[C@@H](C(=O)O)NC(=O)[C@H](CO)NC(=O)[C@H]([C@@H](C)O)NC(=O)[C@H](Cc3ccccc3)NC(=O)[C@H]([C@@H](C)O)NC2=O)cc1 (H-CKFF[d2Nal][Phe(4-CH2NHiPr)]TFTSC-OH; disulfide 1-11)	0.103	> 1	> 10	> 1	> 1
CC(C)NCc1ccc(C[C@@H]2NC(=O)[C@@H](Cc3c[nH]c4ccccc34)NC(=O)[C@H](Cc3ccccc3)NC(=O)[C@H](Cc3ccccc3)NC(=O)[C@H](CCCCN)NC(=O)[C@@H](NC(=O)[C@@H](N)Cc3ccc(O)cc3)CSSC[C@@H](C(=O)O)NC(=O)[C@H](CO)NC(=O)[C@H]([C@@H](C)O)NC(=O)[C@H](Cc3ccccc3)NC(=O)[C@H]([C@@H](C)O)NC2=O)cc1	–	> 10	–	–	0.713
CC(C)NCc1ccc(C[C@@H]2NC(=O)[C@@H](Cc3c[nH]c4ccccc34)NC(=O)[C@H](Cc3ccccc3)NC(=O)[C@@H](NC(=O)[C@@H](N)Cc3ccc(O)cc3)CSSC[C@@H](C(=O)O)NC(=O)[C@H](Cc3ccccc3)NC(=O)[C@H]([C@@H](C)O)NC2=O)cc1 (H-YCF[dW][Phe(4-CH2NHiPr)]TFC-OH; disulfide 2-8)	> 1	> 1	–	> 1	> 1
CNCc1ccc(C[C@@H]2NC(=O)[C@@H](Cc3ccc4ccccc4c3)NC(=O)[C@H](Cc3ccccc3)NC(=O)[C@H](Cc3ccccc3)NC(=O)[C@H](CCCCN)NC(=O)[C@@H](N)CSSC[C@@H](C(=O)O)NC(=O)[C@H](CO)NC(=O)[C@H]([C@@H](C)O)NC(=O)[C@H](Cc3ccccc3)NC(=O)[C@H]([C@@H](C)O)NC2=O)cc1	0.101	> 10	> 1	0.556	0.28
CC(C)NCc1ccc(C[C@@H]2NC(=O)[C@@H](Cc3ccc4ccccc4c3)NC(=O)[C@H](Cc3ccccc3)NC(=O)[C@H](Cc3ccccc3)NC(=O)[C@H](CCCCN)NC(=O)[C@H](NC(=O)CCc3ccc(O)cc3)CSSC[C@H](C(=O)O)NC(=O)[C@H](CO)NC(=O)[C@H]([C@@H](C)O)NC(=O)[C@H](Cc3ccccc3)NC(=O)[C@H]([C@@H](C)O)NC2=O)cc1	> 1	> 1	> 1	> 1	> 1
CC(C)NCc1ccc(C[C@@H]2NC(=O)[C@@H](Cc3c[nH]c4ccccc34)NC(=O)[C@H](Cc3ccccc3)NC(=O)[C@H](Cc3ccccc3)NC(=O)[C@@H](NC(=O)[C@@H](N)Cc3ccc(O)cc3)CSSC[C@@H](C(=O)O)NC(=O)[C@H]([C@@H](C)O)NC(=O)[C@H](Cc3ccccc3)NC(=O)[C@H]([C@@H](C)O)NC2=O)cc1	0.72	> 1	–	> 10	0.445
CC(C)NCc1ccc(C[C@@H]2NC(=O)[C@@H](Cc3c[nH]c4ccccc34)NC(=O)[C@H](Cc3ccccc3)NC(=O)[C@H](Cc3ccccc3)NC(=O)[C@@H](N)CSSC[C@@H](C(=O)O)NC(=O)[C@H](Cc3ccccc3)NC(=O)[C@H]([C@@H](C)O)NC2=O)cc1 (H-CFF[dW][Phe(4-CH2NHiPr)]TFC-OH; disulfide 1-8)	–	–	> 10	> 10	–
CC(C)NCc1ccc(C[C@@H]2NC(=O)[C@@H](Cc3ccc4ccccc4c3)NC(=O)[C@H](Cc3ccccc3)NC(=O)[C@H](Cc3ccccc3)NC(=O)[C@H](CCCCN)NC(=O)[C@H](NC(=O)CCc3ccc(O)cc3)CSSC[C@@H](C(=O)O)NC(=O)[C@H](CO)NC(=O)[C@H]([C@@H](C)O)NC(=O)[C@H](Cc3ccccc3)NC(=O)[C@@H]([C@@H](C)O)NC2=O)cc1 (stereo in doubt; 31)	0.975	> 1	> 10	> 10	> 1
C[C@@H](O)[C@@H]1NC(=O)[C@H](CCCCN)NC(=O)[C@@H](Cc2c[nH]c3ccccc23)NC(=O)[C@H](Cc2ccccc2)NC(=O)[C@H](Cc2ccccc2)NC(=O)[C@@H](N)CSSC[C@@H](C(=O)O)NC(=O)[C@H](Cc2ccccc2)NC1=O (H-CFF[dW]KTFC-OH; disulfide 1-8)	–	0.0013	–	0.0438	–
CC(C)NCc1ccc(C[C@@H]2NC(=O)[C@@H](Cc3ccc4ccccc4c3)NC(=O)[C@H](Cc3ccccc3)NC(=O)[C@H](Cc3ccccc3)NC(=O)[C@H](CCCCN)NC(=O)[C@@H](NC(=O)CCc3ccc(O)cc3)CSSC[C@@H](C(=O)O)NC(=O)[C@H](CO)NC(=O)[C@H]([C@@H](C)O)NC(=O)[C@H](Cc3ccccc3)NC(=O)[C@H]([C@@H](C)O)NC2=O)cc1	0.563	> 10	> 10	> 1	> 1
CC(C)NCc1ccc(C[C@@H]2NC(=O)[C@@H](Cc3c[nH]c4ccccc34)NC(=O)[C@H](Cc3ccccc3)NC(=O)[C@H](Cc3ccccc3)NC(=O)[C@H](CCCCN)NC(=O)[C@H](NC(=O)[C@@H](N)Cc3ccc(O)cc3)CSSC[C@@H](C(=O)O)NC(=O)[C@H](CO)NC(=O)[C@H]([C@@H](C)O)NC(=O)[C@H](Cc3ccccc3)NC(=O)[C@H]([C@@H](C)O)NC2=O)cc1	–	> 1	–	> 10	> 1
CC(C)NCc1ccc(C[C@@H]2NC(=O)[C@@H](Cc3ccc4ccccc4c3)NC(=O)[C@H](Cc3ccccc3)NC(=O)[C@H](Cc3ccccc3)NC(=O)[C@H](CCCCN)NC(=O)[C@H](NC(=O)CCc3ccc(O)cc3)CSSC[C@@H](C(=O)O)NC(=O)[C@H](CO)NC(=O)[C@H]([C@@H](C)O)NC(=O)[C@H](Cc3ccccc3)NC(=O)[C@@H]([C@@H](C)O)NC2=O)cc1 (stereo in doubt; 30)	0.845	–	> 1	–	0.75
